{"source": "ChEMBL document CHEMBL1128663", "about": "“Wiedendiol-A and -B, cholesteryl ester transfer protein inhibitors from the marine sponge Xestospongia wiedenmayeri” (Bioorg Med Chem Lett, 1995)", "key": {"[1]": {"molecular_target": "T1, Cholesteryl ester transfer protein (Homo sapiens, UniProt P11597)", "T1 sequence (P11597 whole entry)": "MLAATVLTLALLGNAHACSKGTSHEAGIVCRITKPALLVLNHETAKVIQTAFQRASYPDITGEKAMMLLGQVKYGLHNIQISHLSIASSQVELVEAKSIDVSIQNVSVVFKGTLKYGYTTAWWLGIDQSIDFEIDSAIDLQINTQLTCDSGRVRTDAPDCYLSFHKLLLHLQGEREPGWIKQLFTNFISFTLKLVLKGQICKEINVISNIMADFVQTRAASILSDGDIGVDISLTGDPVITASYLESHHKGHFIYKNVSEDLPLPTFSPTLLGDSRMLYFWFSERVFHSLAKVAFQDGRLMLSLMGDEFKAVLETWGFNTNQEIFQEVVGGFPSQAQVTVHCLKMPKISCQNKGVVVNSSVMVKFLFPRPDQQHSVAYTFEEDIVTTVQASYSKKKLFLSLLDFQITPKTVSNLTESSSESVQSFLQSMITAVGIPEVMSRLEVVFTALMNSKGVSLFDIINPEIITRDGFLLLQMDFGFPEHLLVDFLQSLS", "experiment": "Compound was tested for Cholesteryl ester transfer protein (CETP) inhibition by CETP-SPA assay"}, "[2]": {"molecular_target": "T1, Cholesteryl ester transfer protein", "experiment": "Compound was tested for CETP inhibition by a precipitation method to separate lipoproteins after incubation of radiolabeled HDL with LDL and CETP."}}}
{"smiles": "COc1ccc(O)c2c1C[C@]1(C)[C@@H](C)CCC3C(C)(C)CCC[C@]31O2", "note": "(some centres not stated)", "values": [{"measurement": "IC50", "setting": "[1]", "result": 46, "unit": "µM"}]}
{"smiles": "C[C@H]1CCC2C(C)(C)CCC[C@]23Oc2ccc(O)cc2C[C@]13C", "note": "(some centres not stated)", "values": [{"measurement": "IC50", "setting": "[1]", "result": 22, "unit": "µM"}]}
{"smiles": "COc1ccc(O)c(O)c1/C=C1\\[C@@H](C)CCC2C(C)(C)CCC[C@]12C", "note": "(some centres not stated)", "values": [{"measurement": "IC50", "setting": "[2]", "result": 0.6, "unit": "µM"}, {"measurement": "IC50", "setting": "[1]", "result": 5, "unit": "µM"}]}
{"smiles": "COc1ccc(O)c(O)c1CC1=C(C)CCC2C(C)(C)CCC[C@]12C", "note": "(some centres not stated)", "values": [{"measurement": "IC50", "setting": "[2]", "result": 1, "unit": "µM"}, {"measurement": "IC50", "setting": "[1]", "result": 5, "unit": "µM"}]}
{"smiles": "CC1=CCC[C@H]2[C@](C)(Cc3cc(O)ccc3O)[C@@H](C)CC[C@]12C", "note": "[AVAROL]", "values": [{"measurement": "IC50", "setting": "[1]", "result": 25, "unit": "µM"}]}
{"smiles": "CC1(C)CCC[C@]2(C)C3C=C4C(=CC(=O)C(O)=C4Cl)OC3CC[C@@]12C", "note": "(some centres not stated) [CHOLOROPUUPEHENONE]", "values": [{"measurement": "IC50", "setting": "[1]", "result": 0.3, "unit": "µM"}]}
{"smiles": "C=C1CCC[C@H]2[C@](C)(CC3=C(O)C(=O)C=C(OC)C3=O)[C@@H](C)CC[C@]12C", "note": "[ILIMAQUINONE]", "values": [{"measurement": "IC50", "setting": "[1]", "result": 100, "unit": "µM"}]}
{"smiles": "CC1(C)CCC[C@]2(C)[C@H]3C=C4C=C(O)C(=O)C=C4O[C@@]3(C)CC[C@@H]12", "note": "[PUUPEHENONE]", "values": [{"measurement": "IC50", "setting": "[1]", "result": 6, "unit": "µM"}]}
{"smiles": "C[C@]12CC(=O)[C@@H](O)[C@](C)(CO)[C@@H]1CC[C@@]1(C)c3cocc3CC[C@H]21", "note": "[SPONGIADIOL]", "values": [{"measurement": "IC50", "setting": "[1]", "result": 196, "unit": "µM"}]}
{"smiles": "CC1=CC[C@H]2C(C)(C)CCC[C@]2(C)[C@H]1C[C@H](OS(=O)(=O)[O-])[C@H](C)CCCc1ccoc1.C[N+](C)=C(N)N", "note": "[SULFIRICIN]", "values": [{"measurement": "IC50", "setting": "[1]", "result": "> 190", "unit": "µM"}]}
